Laboratory results taken from the NIST ThermoML archive (doi:10.1021/je300853z).
Numbers after ± are expanded uncertainties.

Experiment: excess molar enthalpy (molar enthalpy of mixing); xn = mol fraction of the nth substance listed
Details: 101 kPa, Liquid, Calvet calorimetry

CCCCCCCC[n+]1ccc2ccccc2c1.N#C[S-] [2-octylisoquinolinium thiocyanate] + O
Details	excess molar enthalpy [kcal/mol]
298.15 K, x1 = 0.2433	0.0308 ± 0.00043
298.15 K, x1 = 0.258	0.0292 ± 0.000406
298.15 K, x1 = 0.2745	0.0249 ± 0.000382
298.15 K, x1 = 0.2933	0.0158 ± 0.000311
298.15 K, x1 = 0.3149	0.00142 ± 0.000201
298.15 K, x1 = 0.3361	-0.0125 ± 0.000287
298.15 K, x1 = 0.3603	-0.0289 ± 0.000406
298.15 K, x1 = 0.3833	-0.0433 ± 0.000526
298.15 K, x1 = 0.4094	-0.0581 ± 0.000645
298.15 K, x1 = 0.4329	-0.0703 ± 0.000741
298.15 K, x1 = 0.4593	-0.08198 ± 0.000813
298.15 K, x1 = 0.4892	-0.09345 ± 0.000908
298.15 K, x1 = 0.5141	-0.1009 ± 0.00098
298.15 K, x1 = 0.5417	-0.1071 ± 0.00103
298.15 K, x1 = 0.5724	-0.1116 ± 0.00105
298.15 K, x1 = 0.6068	-0.1138 ± 0.00108
298.15 K, x1 = 0.6457	-0.113 ± 0.00108
298.15 K, x1 = 0.6742	-0.1107 ± 0.00105
298.15 K, x1 = 0.7053	-0.1052 ± 0.001
298.15 K, x1 = 0.7395	-0.09728 ± 0.000956
298.15 K, x1 = 0.7771	-0.08676 ± 0.00086
298.15 K, x1 = 0.7969	-0.0805 ± 0.000813
298.15 K, x1 = 0.8176	-0.0727 ± 0.000741
298.15 K, x1 = 0.8395	-0.0641 ± 0.000693
298.15 K, x1 = 0.8626	-0.0543 ± 0.000621
298.15 K, x1 = 0.887	-0.0445 ± 0.000526
298.15 K, x1 = 0.9128	-0.0332 ± 0.000454
298.15 K, x1 = 0.9401	-0.0211 ± 0.000359
298.15 K, x1 = 0.9691	-0.00755 ± 0.000263
303.15 K, x1 = 0.2439	0.0421 ± 0.000502
303.15 K, x1 = 0.2588	0.0373 ± 0.000478
303.15 K, x1 = 0.2756	0.0294 ± 0.000406
303.15 K, x1 = 0.2947	0.0165 ± 0.000311
303.15 K, x1 = 0.3133	0.00311 ± 0.000213
303.15 K, x1 = 0.3344	-0.0118 ± 0.000287
303.15 K, x1 = 0.3586	-0.0282 ± 0.000406
303.15 K, x1 = 0.3815	-0.043 ± 0.000526
303.15 K, x1 = 0.4076	-0.0583 ± 0.000645
303.15 K, x1 = 0.4311	-0.0707 ± 0.000741
303.15 K, x1 = 0.4575	-0.0829 ± 0.000837
303.15 K, x1 = 0.4873	-0.09441 ± 0.000932
303.15 K, x1 = 0.5122	-0.1021 ± 0.00098
303.15 K, x1 = 0.5398	-0.1087 ± 0.00103
303.15 K, x1 = 0.5706	-0.1138 ± 0.00108
303.15 K, x1 = 0.605	-0.1166 ± 0.0011
303.15 K, x1 = 0.644	-0.1169 ± 0.0011
303.15 K, x1 = 0.6725	-0.1147 ± 0.00108
303.15 K, x1 = 0.7038	-0.1107 ± 0.00105
303.15 K, x1 = 0.7381	-0.104 ± 0.001
303.15 K, x1 = 0.7758	-0.09393 ± 0.000908
303.15 K, x1 = 0.7957	-0.08795 ± 0.00086
303.15 K, x1 = 0.8165	-0.081 ± 0.000813
303.15 K, x1 = 0.8385	-0.0729 ± 0.000765
303.15 K, x1 = 0.8617	-0.0643 ± 0.000693
303.15 K, x1 = 0.8862	-0.055 ± 0.000621
303.15 K, x1 = 0.9122	-0.0435 ± 0.000526
303.15 K, x1 = 0.9397	-0.0304 ± 0.00043
303.15 K, x1 = 0.9689	-0.0157 ± 0.000311
308.15 K, x1 = 0.214	0.0641 ± 0.000693
308.15 K, x1 = 0.2281	0.0612 ± 0.000669
308.15 K, x1 = 0.2422	0.0562 ± 0.000621
308.15 K, x1 = 0.2581	0.0454 ± 0.000526
308.15 K, x1 = 0.2762	0.0311 ± 0.00043
308.15 K, x1 = 0.297	0.0144 ± 0.000311
308.15 K, x1 = 0.3176	-0.00142 ± 0.000201
308.15 K, x1 = 0.3411	-0.0193 ± 0.000335
308.15 K, x1 = 0.3636	-0.0349 ± 0.000454
308.15 K, x1 = 0.3892	-0.0516 ± 0.000574
308.15 K, x1 = 0.4124	-0.065 ± 0.000693
308.15 K, x1 = 0.4385	-0.0782 ± 0.000789
308.15 K, x1 = 0.4682	-0.0913 ± 0.000884
308.15 K, x1 = 0.493	-0.1001 ± 0.000956
308.15 K, x1 = 0.5207	-0.1083 ± 0.00103
308.15 K, x1 = 0.5517	-0.1147 ± 0.00108
308.15 K, x1 = 0.5866	-0.1193 ± 0.00112
308.15 K, x1 = 0.6262	-0.1207 ± 0.00112
308.15 K, x1 = 0.6554	-0.1195 ± 0.00112
308.15 K, x1 = 0.6876	-0.1164 ± 0.0011
308.15 K, x1 = 0.723	-0.1104 ± 0.00105
308.15 K, x1 = 0.7622	-0.1016 ± 0.00098
308.15 K, x1 = 0.7829	-0.09632 ± 0.000932
308.15 K, x1 = 0.8048	-0.08987 ± 0.000884
308.15 K, x1 = 0.8278	-0.0825 ± 0.000837
